Measured values from paper PMC11601558, “SLC6A19 inhibition facilitates urinary neutral amino acid excretion and lowers plasma phenylalanine” (JCI Insight, 2024).
Several values for one entry are separate records, joined by “and”; a condition that tells them apart may be missing. Identical values can stand only once.

Assays:
SLC6A8 = test system: T1, SLC6A8; test: SLC6A8 creatine transport assay; format: cell-based, human; conditions: for SLC6A8 transport (Fig S2 curve point): technical replicates
T1 construct: V5; expressed in transfected cells; host or cells: Flp-In T-Rex 293 cells (Thermo Fisher), tetracycline-induced
Protocol: Supplementary Materials and Methods
Flp-In T-Rex 293 cells (Thermo Fisher) were engineered to induciblyexpress either V5-tagged human SLC1A5, SLC6A8 or SLC7A5 co-expressed with myc-DDK-tagged SLC3A2. Cells expressing SLC 1A5 or SLC6A8 were maintained in either DMEM or DMEM/F12 media supplemented with 10% FBS, 100 U/mL penicillin, 100 μg/mL streptomycin, 200 μg/mL hygromycin, and 10 μg/mL blasticidin. For cells expressing SLC7A5/SLC3A2, the media was additionally supplemented with 300 μg/mL geneticin. All cell lines were maintained at 37°C and 5% CO2. For transport experiments, all cell lines were plated in poly-D-lysine-coated 96-well plates at a density of 35,000 cells/well. One day after plating, expression of SLC1A5, SLC6A8 or SLC7A5 was induced by adding tetracycline at a concentration of 1 μg/mL. Cells were induced for 24 h prior to transport assays. […]
SLC6A8 creatine transport assay
Following a 24 h induction with tetracycline, cells were washed with PBS before JNT -517 was added in 8-point concentration-response diluted in DMEM. 3-guanidinopropionic acid was used as a positive control (33)at a concentrationof 1 mM and 0.5% DMSO was used as a negative control. Cells were incubated in a cell culture incubator for 30 minutes at 37°C and 5% CO 2 before 15 mM D3-labeled creatine (CDN Isotopes) was added as a transport substrate. After a 15 min incubation at 37°C and 5% CO2, cells were washed once with PBS. Cells were lysed in H2O with 500 nM D5-labeled creatine (CDN isotopes) as an internal standard for 1 h at 37°C.
Following lysis, a standard curve of dilution of D3-creatine was added to the last row of each plate. Plates were centrifuged for 5 min and supernatant was diluted 1:2 in H 2O. Sample desalting was performed on a high throughput Agilent RapidFire-365. From the analytical injection plate, approximately 40 μL of sample was desalted through an Agilent RapidFire Cartridge Graphitic Carbon Type D (G9206A) using water with 0.1% ammo nium hydroxide as the loading mobile phase A for 3000 milliseconds at a flow rate of 1.5 mL/min. The sample was then eluted from the cartridge using 80% acetonitrile containing 0.1% ammonium hydroxide for […]
An Agilent Q -ToF 6545 was […]
used as the analyzing mass spectrometer via electrospray ionization. Capillary voltage was set to 3 kV, with a gas temperature of 350°C. Nitrogen drying gas was applied at 12 L/min with a pressure of 40 psi, and sheath gas was set to 375°C with a flow of 12 L/min. All data were collected with a positive ion polarity and stored as centroid data. Agilent MassHunter QToF was […]
used as the integration software for measuring area under the peak for both D3 -creatine and D5-creatine as the internal standard. A linear regression was used from a standard curve of D3 - creatine to calculate absolute concentration from peak area. […]
Microbeta2 microplate counter (PerkinElmer). […]

healthy volunteers = test: Phase 1 safety and tolerability, single ascending dose (SAD) cohorts; format: in vivo, human; conditions: for AEs leading to IP discontinuation / Any CTCAE Grade ≥ 3 / Any TEAE / Death / SAE / TEAE Alanine aminotransferase increased / TEAE Aspartate aminotransferase increased / TEAE Blood creatine phosphokinase increased / TEAE Catheter site pain / TEAE Dizziness / TEAE Headache / TEAE Hematuria / TEAE Nausea / TEAE Pyrexia / TEAE Syncope / TEAE Upper respiratory tract infection / TEAE Urinary tract infection: n = 6
Protocol: Parts A and B of this phase 1, randomized, double-blind, placebo-controlled SAD and MAD oral dose study with JNT-517 were conducted in healthy volunteers. The primary objective for these studies was to assess the safety and tolerability of single and multiple doses of JNT-517 in healthy participants. The secondary objective for these studies was to assess the PK of single and multiple oral doses of JNT-517.
Eligible participants included males and females 18 to 55 years of age, medically healthy with no clinically notable medical history, a BMI of 18–40 kg/m^2 and total body weight > 50 kg (110 lbs), and who have been nonsmokers for at least 2 weeks prior to and throughout dosing.
In total, 40 participants who were healthy adult were randomized to receive JNT-517 (10–170 mg) or placebo (3:1 ratio) in 5 cohorts of 8 participants as SADs. […] Within each SAD cohort, a sentinel group of 2 participants were initially randomized to receive JNT-517 or placebo in a 1:1 ratio. Once safety was confirmed for these 2 sentinel participants over a 48-hour observation period, the remaining 6 participants in the same cohort were randomized 5:1 to receive JNT-517 or placebo. Both JNT-517 and placebo were administered as an on-site compounded suspension.
In both SAD and MAD studies, safety and tolerability were assessed by AE monitoring, clinical laboratory tests (blood chemistries, hematology, coagulation, serology, and urinalysis), vital signs, 12-lead electrocardiograms, and physical examinations. Safety assessment and corresponding samples were collected on day-1 prior to dosing and days 1, 2, 3, and 8 for the SAD study or throughout the 14 days of dosing and day 21 for the MAD study.

NC(=O)N1CCC[C@@H](N(C(=O)NCc2ccc(OC(F)(F)F)cc2F)C2CC2)C1 [JNT-517]
2 (33.3) Number (%): Any TEAE (healthy volunteers; SAD 10 mg) | Any TEAE (healthy volunteers; SAD 25 mg) | Any TEAE (healthy volunteers; SAD 50 mg)
1 (16.7) Number (%): TEAE Catheter site pain (healthy volunteers; SAD 10 mg) | TEAE Dizziness (healthy volunteers; SAD 10 mg) | TEAE Headache (healthy volunteers; SAD 10 mg) | TEAE Nausea (healthy volunteers; SAD 10 mg) | Any CTCAE Grade ≥ 3 (healthy volunteers; SAD 25 mg) | TEAE Alanine aminotransferase increased (healthy volunteers; SAD 25 mg) | TEAE Aspartate aminotransferase increased (healthy volunteers; SAD 25 mg) | TEAE Blood creatine phosphokinase increased (healthy volunteers; SAD 25 mg) | TEAE Hematuria (healthy volunteers; SAD 25 mg) | Any CTCAE Grade ≥ 3 (healthy volunteers; SAD 50 mg) | TEAE Headache (healthy volunteers; SAD 50 mg) | TEAE Syncope (healthy volunteers; SAD 50 mg) | TEAE Upper respiratory tract infection (healthy volunteers; SAD 50 mg) | Any TEAE (healthy volunteers; SAD 170 mg) | TEAE Pyrexia (healthy volunteers; SAD 170 mg) | TEAE Urinary tract infection (healthy volunteers; SAD 170 mg)
94 and 85: SLC6A8 transport (Fig S2 curve point) (SLC6A8; 0.048011 uM)
93.6 and 86.7: SLC6A8 transport (Fig S2 curve point) (SLC6A8; 0.432099 uM)
23.3%: incidence of adverse events (AE) (healthy volunteers; SAD cohorts, all JNT-517 doses (7 of 30))
0 Number (%): AEs leading to IP discontinuation (healthy volunteers; SAD 10 mg) | Any CTCAE Grade ≥ 3 (healthy volunteers; SAD 10 mg) | Death (healthy volunteers; SAD 10 mg) | SAE (healthy volunteers; SAD 10 mg) | TEAE Alanine aminotransferase increased (healthy volunteers; SAD 10 mg) | TEAE Aspartate aminotransferase increased (healthy volunteers; SAD 10 mg) | TEAE Blood creatine phosphokinase increased (healthy volunteers; SAD 10 mg) | TEAE Hematuria (healthy volunteers; SAD 10 mg) | TEAE Pyrexia (healthy volunteers; SAD 10 mg) | TEAE Syncope (healthy volunteers; SAD 10 mg) | TEAE Upper respiratory tract infection (healthy volunteers; SAD 10 mg) | TEAE Urinary tract infection (healthy volunteers; SAD 10 mg) | AEs leading to IP discontinuation (healthy volunteers; SAD 25 mg) | Death (healthy volunteers; SAD 25 mg) | SAE (healthy volunteers; SAD 25 mg) | TEAE Catheter site pain (healthy volunteers; SAD 25 mg) | TEAE Dizziness (healthy volunteers; SAD 25 mg) | TEAE Headache (healthy volunteers; SAD 25 mg) | TEAE Nausea (healthy volunteers; SAD 25 mg) | TEAE Pyrexia (healthy volunteers; SAD 25 mg) | TEAE Syncope (healthy volunteers; SAD 25 mg) | TEAE Upper respiratory tract infection (healthy volunteers; SAD 25 mg) | TEAE Urinary tract infection (healthy volunteers; SAD 25 mg) | AEs leading to IP discontinuation (healthy volunteers; SAD 50 mg) | Death (healthy volunteers; SAD 50 mg) | SAE (healthy volunteers; SAD 50 mg) | TEAE Alanine aminotransferase increased (healthy volunteers; SAD 50 mg) | TEAE Aspartate aminotransferase increased (healthy volunteers; SAD 50 mg) | TEAE Blood creatine phosphokinase increased (healthy volunteers; SAD 50 mg) | TEAE Catheter site pain (healthy volunteers; SAD 50 mg) | TEAE Dizziness (healthy volunteers; SAD 50 mg) | TEAE Hematuria (healthy volunteers; SAD 50 mg) | TEAE Nausea (healthy volunteers; SAD 50 mg) | TEAE Pyrexia (healthy volunteers; SAD 50 mg) | TEAE Urinary tract infection (healthy volunteers; SAD 50 mg) | AEs leading to IP discontinuation (healthy volunteers; SAD 100 mg) | Any CTCAE Grade ≥ 3 (healthy volunteers; SAD 100 mg) | Any TEAE (healthy volunteers; SAD 100 mg) | Death (healthy volunteers; SAD 100 mg) | SAE (healthy volunteers; SAD 100 mg) | TEAE Alanine aminotransferase increased (healthy volunteers; SAD 100 mg) | TEAE Aspartate aminotransferase increased (healthy volunteers; SAD 100 mg) | TEAE Blood creatine phosphokinase increased (healthy volunteers; SAD 100 mg) | TEAE Catheter site pain (healthy volunteers; SAD 100 mg) | TEAE Dizziness (healthy volunteers; SAD 100 mg) | TEAE Headache (healthy volunteers; SAD 100 mg) | TEAE Hematuria (healthy volunteers; SAD 100 mg) | TEAE Nausea (healthy volunteers; SAD 100 mg) | TEAE Pyrexia (healthy volunteers; SAD 100 mg) | TEAE Syncope (healthy volunteers; SAD 100 mg) | TEAE Upper respiratory tract infection (healthy volunteers; SAD 100 mg) | TEAE Urinary tract infection (healthy volunteers; SAD 100 mg) | AEs leading to IP discontinuation (healthy volunteers; SAD 170 mg) | Any CTCAE Grade ≥ 3 (healthy volunteers; SAD 170 mg) | Death (healthy volunteers; SAD 170 mg) | SAE (healthy volunteers; SAD 170 mg) | TEAE Alanine aminotransferase increased (healthy volunteers; SAD 170 mg) | TEAE Aspartate aminotransferase increased (healthy volunteers; SAD 170 mg) | TEAE Blood creatine phosphokinase increased (healthy volunteers; SAD 170 mg) | TEAE Catheter site pain (healthy volunteers; SAD 170 mg) | TEAE Dizziness (healthy volunteers; SAD 170 mg) | TEAE Headache (healthy volunteers; SAD 170 mg) | TEAE Hematuria (healthy volunteers; SAD 170 mg) | TEAE Nausea (healthy volunteers; SAD 170 mg) | TEAE Syncope (healthy volunteers; SAD 170 mg) | TEAE Upper respiratory tract infection (healthy volunteers; SAD 170 mg)
97.4 and 85.6: SLC6A8 transport (Fig S2 curve point) (SLC6A8; 0.0160037 uM)
90.1 and 92.7: SLC6A8 transport (Fig S2 curve point) (SLC6A8; 11.6667 uM)
safe and well tolerated: safety and tolerability (healthy volunteers; healthy participants, SAD 10–170 mg and MAD 14 days)
99.7 and 86.6: SLC6A8 transport (Fig S2 curve point) (SLC6A8; 0.144033 uM)
97.6 and 89.5: SLC6A8 transport (Fig S2 curve point) (SLC6A8; 3.88889 uM)
did not inhibit: inhibition of SLC6A8 (SLC6A8; concentrations up to 35 μM)
93.8 and 90.6: SLC6A8 transport (Fig S2 curve point) (SLC6A8; 1.2963 uM)
95.9 and 86.1: SLC6A8 transport (Fig S2 curve point) (SLC6A8; 35 uM)
